Data reported in ChEMBL document CHEMBL5241122, “A concise review on marine bromopyrrole alkaloids as anticancer agents” (Bioorg Med Chem Lett, 2023).
Values belong to the compound of their own block, whether it stands above or below them. Where a SMILES comes first, the peptide text is derived from it. [ ]: non-standard residue; d: D form. The star is where a group is joined. X1 = Cn1c(Br)c(Br)c(Br)c1C(=O)*; NMeL = CN[C@@H](CC(C)C)C(=O)O

What was measured:
A549 = assay: Cytotoxicity against human A549 cells assessed as cell growth inhibition by cell based assay; assay type: functional
PSN1 = assay: Cytotoxicity against human PSN1 cells assessed as cell growth inhibition by cell based assay; assay type: functional
HT-29 = assay: Cytotoxicity against human HT-29 cells assessed as cell growth inhibition by cell based assay; assay type: functional
MDA-MB-231 = assay: Cytotoxicity against human MDA-MB-231 cells assessed as cell growth inhibition by cell based assay; assay type: functional
[1] = target: Receptor tyrosine-protein kinase erbB-2 (Homo sapiens, UniProt P04626); assay: Inhibition of c-ErbB-2 (unknown origin)
Receptor tyrosine-protein kinase erbB-2, sequence (P04626 whole entry): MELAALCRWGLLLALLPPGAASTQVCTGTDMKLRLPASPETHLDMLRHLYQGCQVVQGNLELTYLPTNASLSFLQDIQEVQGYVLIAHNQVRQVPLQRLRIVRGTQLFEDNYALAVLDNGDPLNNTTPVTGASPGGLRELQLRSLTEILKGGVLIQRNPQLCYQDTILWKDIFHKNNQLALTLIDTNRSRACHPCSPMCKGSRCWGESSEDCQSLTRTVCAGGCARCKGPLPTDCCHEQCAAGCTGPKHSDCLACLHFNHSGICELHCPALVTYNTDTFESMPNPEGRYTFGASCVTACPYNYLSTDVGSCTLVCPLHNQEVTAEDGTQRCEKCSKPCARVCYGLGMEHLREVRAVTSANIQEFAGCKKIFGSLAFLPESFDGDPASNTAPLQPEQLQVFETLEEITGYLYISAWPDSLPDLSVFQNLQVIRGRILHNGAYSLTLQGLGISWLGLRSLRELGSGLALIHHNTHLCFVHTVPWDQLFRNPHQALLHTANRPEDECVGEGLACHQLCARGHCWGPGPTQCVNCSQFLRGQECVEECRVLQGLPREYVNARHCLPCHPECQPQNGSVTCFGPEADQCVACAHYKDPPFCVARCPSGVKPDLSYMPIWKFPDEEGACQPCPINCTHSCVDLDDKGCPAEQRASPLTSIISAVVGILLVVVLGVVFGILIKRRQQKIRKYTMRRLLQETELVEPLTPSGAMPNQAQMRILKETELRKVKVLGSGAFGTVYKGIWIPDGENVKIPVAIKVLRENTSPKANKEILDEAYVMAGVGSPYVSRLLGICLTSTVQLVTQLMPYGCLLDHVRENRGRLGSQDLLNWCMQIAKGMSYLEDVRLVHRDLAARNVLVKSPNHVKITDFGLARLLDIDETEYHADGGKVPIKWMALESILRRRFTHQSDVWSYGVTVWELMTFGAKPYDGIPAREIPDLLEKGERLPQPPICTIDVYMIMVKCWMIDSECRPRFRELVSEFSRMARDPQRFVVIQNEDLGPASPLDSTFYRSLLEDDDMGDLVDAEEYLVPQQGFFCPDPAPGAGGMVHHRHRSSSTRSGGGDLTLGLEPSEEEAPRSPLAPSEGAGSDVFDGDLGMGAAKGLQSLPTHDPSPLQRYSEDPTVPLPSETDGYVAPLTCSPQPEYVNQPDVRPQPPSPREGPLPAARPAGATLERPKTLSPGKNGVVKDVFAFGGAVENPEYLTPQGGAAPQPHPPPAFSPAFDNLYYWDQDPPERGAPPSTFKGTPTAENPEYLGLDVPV

[2] = target: Cyclin-dependent kinase 4 (Homo sapiens, UniProt P11802); assay: Inhibition of CDK4 (unknown origin)
Cyclin-dependent kinase 4, sequence (P11802 whole entry): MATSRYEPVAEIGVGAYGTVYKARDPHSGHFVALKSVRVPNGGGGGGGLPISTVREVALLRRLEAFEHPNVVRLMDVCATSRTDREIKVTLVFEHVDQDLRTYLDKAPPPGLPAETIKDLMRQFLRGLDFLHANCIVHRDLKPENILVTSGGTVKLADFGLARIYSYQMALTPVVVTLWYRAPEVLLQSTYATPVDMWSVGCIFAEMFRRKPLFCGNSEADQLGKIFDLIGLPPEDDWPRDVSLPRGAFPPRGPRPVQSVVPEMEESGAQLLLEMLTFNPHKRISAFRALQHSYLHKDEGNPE

L1210 = assay: Cytotoxicity against mouse L1210 cells; assay type: functional, cell-based
[3] = target: E3 ubiquitin-protein ligase CBL-B (Homo sapiens, UniProt Q13191); assay: Inhibition of Cbl-b (unknown origin) assessed as inhibition of Cbl-b dependent ubiquitination in presence of ATP measured after 13 hrs by fluorescence microplate reader assay
E3 ubiquitin-protein ligase CBL-B, sequence (Q13191 whole entry): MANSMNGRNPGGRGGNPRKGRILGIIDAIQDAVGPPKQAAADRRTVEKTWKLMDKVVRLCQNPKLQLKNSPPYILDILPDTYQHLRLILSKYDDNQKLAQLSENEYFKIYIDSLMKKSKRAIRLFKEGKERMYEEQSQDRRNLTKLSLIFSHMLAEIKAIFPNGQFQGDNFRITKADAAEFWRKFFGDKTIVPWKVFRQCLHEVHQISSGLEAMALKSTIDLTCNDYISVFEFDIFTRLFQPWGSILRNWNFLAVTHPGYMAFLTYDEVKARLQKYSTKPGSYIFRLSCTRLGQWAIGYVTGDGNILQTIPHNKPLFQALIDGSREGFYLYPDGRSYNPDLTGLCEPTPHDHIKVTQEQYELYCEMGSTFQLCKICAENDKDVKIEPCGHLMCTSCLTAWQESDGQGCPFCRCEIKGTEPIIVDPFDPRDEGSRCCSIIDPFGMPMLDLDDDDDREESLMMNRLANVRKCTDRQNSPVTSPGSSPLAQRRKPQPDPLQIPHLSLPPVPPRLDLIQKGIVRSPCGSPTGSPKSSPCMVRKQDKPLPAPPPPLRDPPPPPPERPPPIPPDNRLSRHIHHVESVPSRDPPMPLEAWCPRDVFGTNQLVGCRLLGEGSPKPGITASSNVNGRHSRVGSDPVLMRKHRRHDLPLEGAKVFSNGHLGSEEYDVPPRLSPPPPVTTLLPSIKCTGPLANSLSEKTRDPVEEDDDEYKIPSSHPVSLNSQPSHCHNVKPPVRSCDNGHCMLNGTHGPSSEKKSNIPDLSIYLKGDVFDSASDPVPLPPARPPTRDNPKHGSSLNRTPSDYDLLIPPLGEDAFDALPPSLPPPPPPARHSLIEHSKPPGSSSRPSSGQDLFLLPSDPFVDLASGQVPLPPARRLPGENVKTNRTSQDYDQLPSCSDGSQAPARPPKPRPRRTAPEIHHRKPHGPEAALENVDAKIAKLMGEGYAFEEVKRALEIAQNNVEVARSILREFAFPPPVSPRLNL

Jurkat = assay: Antiinflammatory activity in PMA induced human Jurkat cells assessed as inhibition of IL-2 production by EIA assay; assay type: functional, cell-based
SW-620 = assay: Cytotoxicity against human SW620 cells assessed as cell growth inhibition; assay type: functional, cell-based
[4] = target: Cyclin-dependent kinase 5/CDK5 activator 1 (Homo sapiens, UniProt Q00535); assay: Inhibition of CDK5/p25 (unknown origin); assay type: protein-complex assay
Cyclin-dependent kinase 5/CDK5 activator 1, sequence (Q00535 whole entry): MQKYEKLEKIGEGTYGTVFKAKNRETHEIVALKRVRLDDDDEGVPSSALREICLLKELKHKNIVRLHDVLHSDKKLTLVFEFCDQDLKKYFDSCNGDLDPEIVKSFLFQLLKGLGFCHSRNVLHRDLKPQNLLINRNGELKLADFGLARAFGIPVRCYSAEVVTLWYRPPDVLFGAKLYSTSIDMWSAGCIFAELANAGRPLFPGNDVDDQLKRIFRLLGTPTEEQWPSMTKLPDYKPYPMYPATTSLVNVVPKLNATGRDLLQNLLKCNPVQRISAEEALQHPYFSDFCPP
Cyclin-dependent kinase 5/CDK5 activator 1, sequence (Q15078 whole entry, further chain): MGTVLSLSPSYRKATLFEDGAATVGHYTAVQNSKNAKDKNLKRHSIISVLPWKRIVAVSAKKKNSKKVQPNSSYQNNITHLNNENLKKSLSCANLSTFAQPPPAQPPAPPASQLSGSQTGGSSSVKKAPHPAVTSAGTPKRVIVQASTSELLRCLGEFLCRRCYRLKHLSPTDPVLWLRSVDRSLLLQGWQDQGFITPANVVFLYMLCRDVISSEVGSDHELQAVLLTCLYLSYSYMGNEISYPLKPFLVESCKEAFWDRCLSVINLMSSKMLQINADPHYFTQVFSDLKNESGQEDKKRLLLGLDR

KB 3-1 = assay: Cytotoxicity against human KB-3-1 cells assessed as cell growth inhibition; assay type: functional, cell-based
[5] = Inhibition of CK1gamma (unknown origin); parameters: species or system Homo sapiens
P388 = assay: Cytotoxicity against mouse P388 cells; assay type: functional, cell-based
U-937 = assay: Cytotoxicity against human U-937 cells incubated for 48 hrs by MTT assay; assay type: functional, cell-based; conditions: U-937, 48 h
PC-9 = assay: Cytotoxicity against human PC-9 cells incubated for 48 hrs by MTT assay; assay type: functional, cell-based; conditions: PC-9, 48 h
THP-1 = assay: Antiinflammatory activity in LPS induced human THP-1 cells assessed as inhibition of TNF-alpha production by EIA assay; assay type: functional, cell-based
MONO-MAC-6 = assay: Cytotoxicity against human MONO-MAC-6 cells incubated for 48 hrs by [3H]-thymidine incorporation based liquid scintillation counter analysis; assay type: functional, cell-based
SF-295 = assay: Inhibition of cell growth in human SF-295 cells by SRB assay; assay type: functional; conditions: read-out: ED50 (the source's name)
A498 = assay: Inhibition of cell growth in human A498 cells by SRB assay; assay type: functional; conditions: read-out: ED50 (the source's name)
OVCAR-3 = assay: Inhibition of cell growth in human OVCAR-3 cells by SRB assay; assay type: functional; conditions: read-out: ED50 (the source's name)
SK-MEL-5 = assay: Inhibition of cell growth in human SK-MEL-5 cells by SRB assay; assay type: functional; conditions: read-out: ED50 (the source's name)
KM-20L2 = assay: Inhibition of cell growth in human KM-20L2 cells by SRB assay; assay type: functional; conditions: read-out: ED50 (the source's name)
NCI-H460 = assay: Inhibition of cell growth in human NCI-H460 cells by SRB assay; assay type: functional; conditions: read-out: ED50 (the source's name)
K562 = assay: Cytotoxicity against human K562 cells; assay type: functional, cell-based
KB = assay: Cytotoxicity against human KB cells; assay type: functional, cell-based
[6] = target: Epidermal growth factor receptor (Homo sapiens, UniProt P00533); assay: Inhibition of EGFR (unknown origin)
Epidermal growth factor receptor, sequence (P00533 whole entry): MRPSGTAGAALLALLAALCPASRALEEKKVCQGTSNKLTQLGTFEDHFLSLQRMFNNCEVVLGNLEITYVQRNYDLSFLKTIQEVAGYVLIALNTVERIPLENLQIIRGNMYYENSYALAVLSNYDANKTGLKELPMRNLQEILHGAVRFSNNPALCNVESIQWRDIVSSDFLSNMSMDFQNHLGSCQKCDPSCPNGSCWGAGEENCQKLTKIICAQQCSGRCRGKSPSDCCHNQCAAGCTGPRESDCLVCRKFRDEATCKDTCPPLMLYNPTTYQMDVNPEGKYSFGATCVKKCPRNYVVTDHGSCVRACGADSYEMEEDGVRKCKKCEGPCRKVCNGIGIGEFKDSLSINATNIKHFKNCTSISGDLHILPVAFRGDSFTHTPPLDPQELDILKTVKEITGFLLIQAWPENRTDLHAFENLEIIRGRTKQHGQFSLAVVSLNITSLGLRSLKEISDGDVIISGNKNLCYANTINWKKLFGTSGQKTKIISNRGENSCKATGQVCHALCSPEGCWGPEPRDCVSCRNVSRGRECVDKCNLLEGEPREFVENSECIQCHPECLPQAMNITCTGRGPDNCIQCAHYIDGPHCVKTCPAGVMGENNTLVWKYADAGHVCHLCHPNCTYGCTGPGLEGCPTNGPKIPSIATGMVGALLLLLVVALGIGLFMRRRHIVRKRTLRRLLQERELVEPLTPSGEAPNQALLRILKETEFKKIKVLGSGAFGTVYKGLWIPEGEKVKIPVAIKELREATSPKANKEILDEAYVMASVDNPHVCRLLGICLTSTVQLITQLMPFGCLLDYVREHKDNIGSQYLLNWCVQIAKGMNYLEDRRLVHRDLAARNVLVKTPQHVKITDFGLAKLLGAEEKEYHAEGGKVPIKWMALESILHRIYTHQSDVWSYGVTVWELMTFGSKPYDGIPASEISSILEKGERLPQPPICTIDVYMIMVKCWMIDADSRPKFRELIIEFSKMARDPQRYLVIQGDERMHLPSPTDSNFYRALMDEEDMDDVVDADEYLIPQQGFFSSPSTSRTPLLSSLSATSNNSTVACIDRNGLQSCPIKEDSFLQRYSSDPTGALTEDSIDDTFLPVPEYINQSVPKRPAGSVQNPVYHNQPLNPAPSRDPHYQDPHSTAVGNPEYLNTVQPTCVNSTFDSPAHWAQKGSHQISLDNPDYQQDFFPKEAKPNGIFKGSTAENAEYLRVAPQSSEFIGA

MCF7 [7] = assay: Cytotoxicity against human MCF7 cells by MTT assay; assay type: functional, cell-based
Caco-2 = assay: Cytotoxicity against human Caco-2 cells by MTT assay; assay type: functional, cell-based
WRL68 = assay: Cytotoxicity against human WRL68 cells by MTT assay; assay type: functional, cell-based
HepG2 = assay: Cytotoxicity against human HepG2 cells incubated for 72 hrs by MTT assay; assay type: functional, cell-based; conditions: HepG2, 72 h
CNE = assay: Cytotoxicity against human CNE cells incubated for 72 hrs by MTT assay; assay type: functional, cell-based
LoVo [8] = assay: Cytotoxicity against human LoVo cells incubated for 72 hrs by MTT assay; assay type: functional, cell-based
HeLa = assay: Cytotoxicity against human HeLa cells incubated for 72 hrs by MTT assay; assay type: functional, cell-based
MCF7 [9] = assay: Cytotoxicity against human MCF7 cells incubated for 72 hrs by MTT assay; assay type: functional, cell-based; conditions: MCF7, 72 h
Bel-7402 = assay: Cytotoxicity against human Bel-7402 cells incubated for 72 hrs by MTT assay; assay type: functional, cell-based; conditions: Bel-7402, 72 h
[10] = Inhibition of recombinant human MAPK expressed in Escherichia coli assessed as reduction in MEK-1 phosphorylation incubated for 60 mins by ELISA assay
LoVo [11] = assay: Inhibition of cell growth in human LoVo cells by SRB assay; assay type: functional, cell-based

- IC50 [1]: 21 µM
- IC50 [2]: 98.5 µM
SMILES: N=C1NC(=O)/C(=C2/CCNC(=O)c3[nH]c(Br)c(Br)c32)N1

- IC50 [3]: 18 µM
SMILES: Cn1cc(Br)cc1C(=O)NC[C@H]1CC2N=C(N)NC2[C@@H](c2c[nH]c(N)n2)[C@@H]1CNC(=O)c1cc(Br)cn1C (stereo not given in full)

- IC50 (Jurkat): 3.5 µM
SMILES: NC1=NC(=O)/C(=C2\CCNC(=O)c3[nH]c4ccccc4c32)N1

- IC50 [4]: 0.16 µM
- IC50 [5]: 0.03 µM
SMILES: N=C1NC(=O)C(=C2CCNC(=O)c3[nH]c(Br)cc32)N1
- IC50 (SW-620): 3.1 µM
- IC50 (KB 3-1): 2 µM

- IC50 [3]: 18 µM
SMILES: Cn1cc(Br)cc1C(=O)NC[C@H]1CC2N=C(N)NC2[C@@H](c2c[nH]c(N)n2)[C@@H]1CNC(=O)c1cc(Br)c(Br)[nH]1 (stereo not given in full)

- IC50 [3]: 18 µM
SMILES: Cn1c(C(=O)NC[C@H]2CC3N=C(N)NC3[C@@H](c3c[nH]c(N)n3)[C@@H]2CNC(=O)c2cc(Br)c[nH]2)cc(Br)c1Br (stereo not given in full)

- IC50 [3]: 18 µM
SMILES: Cn1c(Br)ccc1C(=O)NC[C@H]1CC2N=C(N)NC2[C@@H](c2c[nH]c(N)n2)[C@@H]1CNC(=O)c1cc(Br)c[nH]1 (stereo not given in full)

- EC50 (OVCAR-3): 1.18 µM
- EC50 (SK-MEL-5): 0.28 µM
- EC50 (NCI-H460): 1.59 µM
SMILES: O=C1NC2n3c(cc(Br)c3Br)C(=O)N3CCCC23N1 (stereo not given)
- EC50 (SF-295): 3.85 µM
- EC50 (A498): 0.53 µM
- EC50 (KM-20L2): 0.28 µM

- IC50 [1]: 37.9 µM
SMILES: N=C1N=C(NCCS(=O)(=O)O)/C(=C/C(O)CNC(=O)c2cc(Br)c[nH]2)N1 (mixture of isomers)

- IC50 [1]: 37.9 µM
- IC50 [6]: 44.6 µM
SMILES: N=C1N=C(NCCS(=O)(=O)O)/C(=C/C(O)CNC(=O)c2cc(Br)c(Br)[nH]2)N1 (mixture of isomers) [TAUROACIDIN A]

- IC50 [10]: 0.003 µM
- IC50 (LoVo [11]): 0.003 µM
SMILES: NC1=N/C(=C2\CCNC(=O)c3[nH]c(Br)cc32)C(=O)N1

Continued, compound first:

SMILES: CC[C@H](C)[C@H](NC(=O)c1c(Br)c(Br)c(Br)n1C)C(=O)N(C)[C@@H](CC(C)C)C(=O)N1CCC[C@H]1C(=O)N[C@@H](CCC(N)=O)C(=O)O (X1-I[NMeL]PQ-OH)
- GI50 (A549): > 12 µM
- GI50 (PSN1): > 12 µM
- GI50 (HT-29): > 12 µM
- GI50 (MDA-MB-231): > 12 µM

SMILES: CO[C@]12C[C@@H](CNC(=O)c3cc(Br)c[nH]3)O[C@H]1NC(=O)N2
- IC50 (L1210): 19.6 µM

SMILES: COCNC(=O)c1cc(Br)c(Br)[nH]1
- EC50 (P388; read-out: ED50 (the source's name)): 69.4 µM

SMILES: COc1cccc2c1C(=O)c1c(O)c3c(c(O)c1C2=O)C[C@@](O)(C(=O)CO)C[C@@H]3O[C@H]1C[C@H](N)[C@H](O)[C@H](C)O1 [DOXORUBICIN]
- IC50 (U-937): 0.05 µM
- IC50 (PC-9): 0.22 µM

SMILES: NC1=N[C@]23[C@H](N1)c1[nH]c(Br)c(Br)c1C(=O)N2C[C@H](O)[C@H]3O
- IC50 (P388): 78.4 µM

SMILES: S=C(S)N1CCCC1 [PYRROLIDINE DITHIOCARBAMATE]
- IC50 (THP-1): 6.11 µM
- IC50 (Jurkat): 5.12 µM

SMILES: NC1=N/C(=C2/CCNC(=O)c3[nH]ccc32)C(=O)N1 [DEBROMOHYMENIALDISINE]
- IC50 (MONO-MAC-6): 9.67 µM

SMILES: NC1NC(/C=C/CNC(=O)c2cc(Br)c(Br)[nH]2)=C([n+]2cccc(O)c2)N1 (stereo not given)
- IC50 (K562): 20.7 µM
- IC50 (KB): 20.7 µM

SMILES: O=C(NNC(=S)Nc1ccc([N+](=O)[O-])cc1)c1cc(Br)c(Br)[nH]1
- IC50 (MCF7 [7]): 0.03 µM
- IC50 (Caco-2): 0.03 µM
- IC50 (WRL68): 0.03 µM

SMILES: COC(=O)C(NCC(=O)c1cc(Br)c(Br)[nH]1)C(C)C (stereo not given)
- IC50 (HepG2): 15.3 µM
- IC50 (CNE): 43.5 µM
- IC50 (LoVo [8]): 0.96 µM
- IC50 (HeLa): 13.8 µM
- IC50 (MCF7 [9]): 28.6 µM
- IC50 (Bel-7402): 27.8 µM
